Columns and labels:
Assay type in all cases: cell-based, human
[1] = system: IL-13-induced eotaxin-3 protein secretion in BEAS-2B cells; assay: IL-13-induced eotaxin-3 protein secretion in BEAS-2Bs (ELISA); settings: for effect on IL-13-induced eotaxin-3 protein secretion: 2 h pretreatment (1-50 μM), IL-13 5 ng/ml 48 h
Protocol: (§1) BEAS-2B, a human bronchial epithelial cell line transformed with a hybrid adenovirus 12-simian virus 40 was obtained from ATCC (CRL-9609, Manassas, Va.). Primary HNECs were collected by epithelial scraping of IT and NP and cultured. For cytokine (Peprotech, Rocky Hill, N.J.) stimulation, submerged cultured cells were treated with 1-100 ng/ml IL-13, 10 ng/ml IFN-γ, 100 ng/ml TNF or 50 ng/ml IL-17 for 6 h or 48 h. To study the effects of PPIs (Sigma-Aldrich, St Louis, Mo.) on cytokine-induced chemokines, cells were pretreated for 2 h with acid-activated omeprazole (0.1-50 μM) or other PPIs: lansoprazole, rabeprazole, pantoprazole, and esomeprazole (1-50 μM) prior to stimulation with 5 ng/ml IL-13. Additionally, SCH-28080 (1-50 μM; Sigma-Aldrich) was used with the same protocol. In experiments altering extracellular K^+ concentration ([K^+]e), modified Ringer's solution that contained different contents of K^+ (0-11.2 mM KCl, Table 4) was used as culture media. For mRNA stability assessment, actinomycin D (3 μg/ml, Sigma-Aldrich) was used and eotaxin-3 mRNA was measured using real-time PCR. Supernatants, whole cell lysates, and total RNAs were harvested for further analysis.
(§2) Eotaxin-1, eotaxin-2, and eotaxin-3 protein concentrations in supernatants were determined with the appropriate ELISA kits.

[2] = system: IL-13-induced eotaxin-3 protein secretion in HNECs; assay: IL-13-induced eotaxin-3 protein secretion in HNECs (ELISA)
Protocol: as §1, §2

pSTAT6 = assay: IL-13-induced STAT6 phosphorylation in BEAS-2Bs (Western blot)
Protocol: FIGS. 6A-6D. Effects of omeprazole on IL-13-induced STAT6 phosphorylation and eotaxin-3 mRNA stability. FIG. 6A, In IL-13-stimulated BEAS-2Bs with omeprazole or vehicle, pSTAT6 and total STAT6 protein expression were measured by using Western blots. FIG. 6B, Semi-quantitative densitometry data for A (Mean±SEM, n=3-6). FIG. 6C, Experimental protocol for eotaxin-3 mRNA stability assessment using real-time PCR. FIG. 6D, Relative eotaxin-3 mRNA expression levels following treatment with actinomycin D and/or omeprazole. mRNA levels of eotaxin-1, eotaxin-2, eotaxin-3, CXCL1, CXCL10, ATP12A, and ATP4A in total RNAs isolated from cells were measured using quantitative real-time PCR. Western blots were performed to assess total signal transducer and activator of transcription 6 (STATE), phosphorylated-STAT6 (pSTAT6) and ATP12A protein in whole cell lysates (ref. 38; incorporated by reference in its entirety).

[3] = system: IFN-γ-induced CXCL-10 (IP-10); assay: IFN-γ-induced CXCL10 (IP-10) mRNA expression in BEAS-2B cells; settings: PPI 5 μM 2 h, IFN-γ 10 ng/ml 6 h
Protocol: (§3) FIG. 9. […] Cells were pretreated with various PPIs for 2 h and stimulated for 6 h with IFN-γ (10 ng/ml), TNF (100 ng/ml) or IL-17 (50 ng/ml). IFN-γ-induced CXCL10 (IP-10), TNF-α-induced eotaxin-1, and IL-17-induced CXCL1 mRNA expression levels in total RNA from cells were measured by using real-time PCR. Data represent means±SEM compared with vehicle-treated/cytokine-stimulated cells. O, omeprazole; L, lansoprazole; R, rabeprazole; P, pantoprazole; E, esomeprazole all at 5 μM
as §1
(§4) mRNA levels of eotaxin-1, eotaxin-2, eotaxin-3, CXCL1, CXCL10, ATP12A, and ATP4A in total RNAs isolated from cells were measured using quantitative real-time PCR. Western blots were performed to assess total signal transducer and activator of transcription 6 (STATE), phosphorylated-STAT6 (pSTAT6) and ATP12A protein in whole cell lysates (ref. 38; incorporated by reference in its entirety).

IL-17-induced CXCL-1 = assay: IL-17-induced CXCL1 mRNA expression in BEAS-2B cells; settings: PPI 5 μM 2 h, IL-17 50 ng/ml 6 h
Protocol: as §3, §1, §4

TNF-α-induced eotaxin-1 = TNF-α-induced eotaxin-1 mRNA expression in BEAS-2B cells; settings: PPI 5 μM 2 h, TNF 100 ng/ml 6 h
Protocol: as §3, §1, §4

[4] = system: IL-13-induced intracellular alkalinization in BEAS-2B cells (ngH,K-ATPase); assay: Intracellular pH (pHi) imaging, pHrodo Green, IL-13-stimulated BEAS-2Bs; settings: up to 1 h after IL-13, spectrofluorometry
Protocol: The pH-sensitive dye, pHrodo® Green AM intracellular pH indicator (Life Technologies) that increases its fluorescence with decreasing pHi was used (ref 39; incorporated by reference in its entirety). Cells cultured in glass bottom microwell dishes (MatTek, Ashland, Mass.) were pre-treated with omeprazole or vehicle prior to 6 h IL-13 stimulation. Then cells were incubated with dye (5 μM) with live cell imaging solution (Life Technologies) at 37° C. for 30 minutes per manufacturer's instructions. Spinning disk confocal microscopy for live cells imaging was performed with Andor XDi Revolution (Andor Technologies, Belfast, UK). Fluorescence intensity was measured in 150 cells using Image J software (National Institutes of Health, Bethesda, Md.). For kinetic experiments, fluorescence intensity of cells cultured in 96-well plates with omeprazole, SCH-28080 or matched vehicle was measured at various times before and after IL-13 stimulation up to 1 h using the SpectraMax® Gemini EM Microplate Spectrofluorometer (Molecular devices, Sunnyvale, Calif.) at 485/538 nm (excitation/emission).

[5] = 5 μM omeprazole, 2 h pretreatment, IL-13 48 h

SMILES	lowest concentration significantly inhibiting IL-13-induced eotaxin-3 protein secretion [1]	IL-13-induced eotaxin-3 protein secretion was reduced [1, 5]	lowest concentration significantly inhibiting IL-13-induced eotaxin-3 protein secretion [2]	IL-13-induced eotaxin-3 protein secretion was reduced [2, 5]	IL-13-induced pSTAT6 (pSTAT6)	IFN-γ-induced CXCL-10 (IP-10) mRNA expression [3]	IL-17-induced CXCL-1 mRNA expression (IL-17-induced CXCL-1)	TNF-α-induced eotaxin-1 mRNA expression (TNF-α-induced eotaxin-1)	effect on IL-13-induced eotaxin-3 protein secretion [1]	IL-13-induced intracellular alkalinization, kinetic studies [4]
COc1ccc2[nH]c([S+]([O-])Cc3ncc(C)c(OC)c3C)nc2c1 (stereo not shown) [omeprazole, 5- or 6-methoxy-2-{[(4-methoxy-3,5-dimethylpyridin-2-yl)methyl]sulfinyl}-1H-ben-zimidazole]	5 µM	57.9%	1 µM	37.1%	not significantly inhibited	did not inhibit	did not inhibit	did not inhibit		
COc1ccc2nc([S@@+]([O-])Cc3ncc(C)c(OC)c3C)[nH]c2c1 [esomeprazole, S-5-methoxy-2-{(4-methoxy-3,5 dimethylpyridin-2-yl)methylsufinyl]-3H-benzoimidazole]						did not inhibit	did not inhibit	did not inhibit	dose-dependent inhibitory effects	
Cc1c(OCC(F)(F)F)ccnc1C[S+]([O-])c1nc2ccccc2[nH]1 (stereo not shown) [lansoprazole]						did not inhibit	did not inhibit	did not inhibit	dose-dependent inhibitory effects	
Cc1nc2c(OCc3ccccc3)cccn2c1CC#N [SCH-28080]									significantly inhibited	blunted
COCCCOc1ccnc(C[S+]([O-])c2nc3ccccc3[nH]2)c1C (stereo not shown) [rabeprazole, 2-([4-(3-methoxypropoxy)-3-methylpyridin-2-yl]methylsulfinyl)-1H-benzo(d)-imidazole]						did not inhibit	did not inhibit	did not inhibit	dose-dependent inhibitory effects	
COc1ccnc(C[S+]([O-])c2nc3ccc(OC(F)F)cc3[nH]2)c1OC (stereo not shown) [pantoprazole]						did not inhibit	did not inhibit	did not inhibit		

Reference: patent US20180092894A1, “TREATMENT OF EOSINOPHILIC INFLAMMATORY DISEASE” (Northwestern University, priority 2016, published 2018)
